Data set [1] can be described thus: log D7.4 by the shake flask method. In kind it is physicochemical.
Data set [2] relates to KB tumor xenografts. Briefly: Ex vivo biodistribution of [18F]FDG-AB-folate in nude mice bearing KB tumor xenografts. As to conditions: 2 h p.i., n = 3. The method, then:
In vivo experiments were performed in female nude mice bearing KB tumor xenografts.
Animals were injected with ˜3 MBq of [^18F]FDG-AB-folate 34 via a lateral tail vein. Animals were sacrificed 2 h after radiotracer injection. Organs- and tissues were dissected and measured in the γ-counter (Wizard, PerkinElmer). The incorporated radioactivity was expressed as percentage injected dose (% ID) per gram of tissue.

Consider 1 compound from US9295739B2, “Folate conjugates of albumin-binding entities” (MERCK & CIE, priority 2011, dated 2016).

Consider `Nc1nc2ncc(CNc3ccc(C(=O)N[C@@H](CCC(=O)NC(Cc4cn([C@@H]5OC(CO)[C@@H](O)[C@H](O)C5[18F])nn4)C(=O)N[C@@H](CCCCNC(=O)CCCc4ccc(I)cc4)C(=O)O)C(=O)O)cc3)nc2c(=O)[nH]1` (stereo partly shown) [[^18F]FDG-AB-folate], for which the “log D7.4 value” in data set [1] was −3.2±0.4. Besides, in data set [2], the Blood is recorded as 2.93 ± 0.55 % ID/g, the Bone came out at 1.50 ± 0.24 % ID/g, the Brain is on record as 0.89 ± 0.17 % ID/g and the Feces stood at 53.02 ± 26.52 % ID/g. In data set [2], this compound returned a Gallbladder of 83.78 ± 16.78 % ID/g, a Heart of 3.20 ± 0.53 % ID/g, an Intestine of 8.84 ± 7.07 % ID/g and a Kidneys of 14.98 ± 1.47 % ID/g. In addition, in data set [2], the Liver worked out at 7.14 ± 0.78 % ID/g, the Lungs was found to be 2.44 ± 0.58 % ID/g, the Muscle was 1.62 ± 0.26 % ID/g and the “Ratio Tumor/Blood” value was found to be 3.33 ± 0.59. In data set [2], the “Ratio Tumor/Kidneys” value was found to be 0.64 ± 0.07, the “Ratio Tumor/Liver” value is 1.34 ± 0.16, the Salivary glands was 7.55 ± 0.08 % ID/g and the Spleen stood at 0.81 ± 0.03 % ID/g. Besides, in data set [2], the Stomach is 1.93 ± 0.51 % ID/g and the Tumor worked out at 9.51 ± 0.08 % ID/g.
